target: human LPAR1 (Homo sapiens (Human), UniProt Q92633); assay: LPAR1 intracellular calcium mobilization assay (antagonist mode, FLIPR); assay type: cell-based; conditions: CHO-K1 EDG2 cells expressing human LPAR1, LPA 18:2 at EC80 (100 nM), test compound 0.5 nM to 10 μM
Sequence (Q92633 whole entry): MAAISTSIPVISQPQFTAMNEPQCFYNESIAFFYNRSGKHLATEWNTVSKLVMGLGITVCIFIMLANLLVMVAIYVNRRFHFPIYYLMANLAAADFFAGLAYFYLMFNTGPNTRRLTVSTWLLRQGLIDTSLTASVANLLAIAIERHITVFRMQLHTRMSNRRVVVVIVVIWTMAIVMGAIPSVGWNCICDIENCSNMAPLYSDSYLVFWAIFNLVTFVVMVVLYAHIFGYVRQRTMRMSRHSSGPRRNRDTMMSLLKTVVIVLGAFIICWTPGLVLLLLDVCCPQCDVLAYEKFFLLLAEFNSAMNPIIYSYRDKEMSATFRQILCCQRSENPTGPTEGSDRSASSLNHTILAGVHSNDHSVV

SMILES	EC50 [nM]
C[C@@H](OC(=O)Nc1c(-c2ccc(NC(=O)C3CC3(C)C)cn2)nnn1C)c1cccnc1Cl (stereo partly drawn) [Compound 49, (R)-1-(2-chloropyridin-3-yl)ethyl (4-(5-(2,2-dimethylcyclopropane-1-carboxamido)pyridin-2-yl)-1-methyl-1H-1,2,3-triazol-5-yl)carbamate]	353
C[C@@H](OC(=O)Nc1c(-c2ccc(NC(=O)[C@H]3C[C@@H]3C#N)cn2)nnn1C)c1cccnc1Cl [Compound 50, (R)-1-(2-chloropyridin-3-yl)ethyl (4-(5-((1S,2S)-2-cyanocyclopropane-1-carboxamido)pyridin-2-yl)-1-methyl-1H-1,2,3-triazol-5-yl)carbamate]	1760
C[C@@H](OC(=O)Nc1c(-c2ccc(NC(=O)[C@@H]3C[C@H]3C#N)cn2)nnn1C)c1cccnc1Cl [Compound 51, (R)-1-(2-chloropyridin-3-yl)ethyl (4-(5-((1R,2R)-2-cyanocyclopropane-1-carboxamido)pyridin-2-yl)-1-methyl-1H-1,2,3-triazol-5-yl)carbamate]	88.7
C[C@@H](OC(=O)Nc1c(-c2ccc(NC(=O)[C@H]3C[C@@H]3F)cn2)nnn1C)c1cccnc1Cl [Compound 52, (R)-1-(2-chloropyridin-3-yl)ethyl (4-(5-((1R,2S)-2-fluorocyclopropane-1-carboxamido)pyridin-2-yl)-1-methyl-1H-1,2,3-triazol-5-yl)carbamate]	622
C[C@@H](OC(=O)Nc1c(-c2ccc(NC(=O)[C@@H]3C[C@@H]3F)cn2)nnn1C)c1cccnc1Cl [Compound 53, (R)-1-(2-chloropyridin-3-yl)ethyl (4-(5-((1S,2S)-2-fluorocyclopropane-1-carboxamido)pyridin-2-yl)-1-methyl-1H-1,2,3-triazol-5-yl)carbamate]	1460
C[C@@H](OC(=O)Nc1c(-c2ccc(NC(=O)C3CCO3)cn2)nnn1C)c1cccnc1Cl (stereo partly drawn) [Compound 54, (R)-1-(2-chloropyridin-3-yl)ethyl (1-methyl-4-(5-(oxetane-2-carboxamido)pyridin-2-yl)-1H-1,2,3-triazol-5-yl)carbamate]	7860
C[C@@H](OC(=O)Nc1c(-c2ccc(NC(=O)C3(C(F)(F)F)CC3)cn2)nnn1C)c1cccnc1Cl [Compound 55, (R)-1-(2-chloropyridin-3-yl)ethyl (1-methyl-4-(5-(1-(trifluoromethyl)cyclopropane-1-carboxamido)pyridin-2-yl)-1H-1,2,3-triazol-5-yl)carbamate]	478
C[C@@H](OC(=O)Nc1c(-c2ccc(NC(=O)[C@H]3C[C@H]3F)cn2)nnn1C)c1cccnc1Cl [Compound 56, (R)-1-(2-chloropyridin-3-yl)ethyl (4-(5-((1R,2R)-2-fluorocyclopropane-1-carboxamido)pyridin-2-yl)-1-methyl-1H-1,2,3-triazol-5-yl)carbamate]	1140
C[C@@H](OC(=O)Nc1c(-c2ccc(NC(=O)C3COC3)cn2)nnn1C)c1cccnc1Cl [Compound 57, (R)-1-(2-chloropyridin-3-yl)ethyl (1-methyl-4-(5-(oxetane-3-carboxamido)pyridin-2-yl)-1H-1,2,3-triazol-5-yl)carbamate]	339
C[C@@H](OC(=O)Nc1c(-c2ccc(NC(=O)c3cccnc3)cn2)nnn1C)c1cccnc1Cl [Compound 58, (R)-1-(2-chloropyridin-3-yl)ethyl (1-methyl-4-(5-(nicotinamido)pyridin-2-yl)-1H-1,2,3-triazol-5-yl)carbamate]	205
C[C@@H](OC(=O)Nc1c(-c2ccc(NC(=O)CC#N)cn2)nnn1C)c1cccnc1Cl [Compound 59, (R)-1-(2-chloropyridin-3-yl)ethyl (4-(5-(2-cyanoacetamido)pyridin-2-yl)-1-methyl-1H-1,2,3-triazol-5-yl)carbamate]	264
C[C@@H](OC(=O)Nc1c(-c2ccc(NC(=O)C3(F)CC3)cn2)nnn1C)c1cccnc1Cl [Compound 60, (R)-1-(2-chloropyridin-3-yl)ethyl (4-(5-(1-fluorocyclopropane-1-carboxamido)pyridin-2-yl)-1-methyl-1H-1,2,3-triazol-5-yl)carbamate]	140
C[C@@H](OC(=O)Nc1c(-c2ccc(NC(=O)c3ccncc3)cn2)nnn1C)c1cccnc1Cl [Compound 61, (R)-1-(2-chloropyridin-3-yl)ethyl (4-(5-(isonicotinamido)pyridin-2-yl)-1-methyl-1H-1,2,3-triazol-5-yl)carbamate]	134
C[C@@H](OC(=O)Nc1c(-c2ccc(NC(=O)[C@H]3C[C@H](F)C3)cn2)nnn1C)c1cccnc1Cl [Compound 62, (R)-1-(2-chloropyridin-3-yl)ethyl (4-(5-((1r,3R)-3-fluorocyclobutane-1-carboxamido)pyridin-2-yl)-1-methyl-1H-1,2,3-triazol-5-yl)carbamate]	110
C[C@@H](OC(=O)Nc1c(-c2ccc(NC(=O)C3CCC3(F)F)cn2)nnn1C)c1cccnc1Cl (stereo partly drawn) [Compound 63, (R)-1-(2-chloropyridin-3-yl)ethyl (4-(5-(2,2-difluorocyclobutane-1-carboxamido)pyridin-2-yl)-1-methyl-1H-1,2,3-triazol-5-yl)carbamate]	120
C[C@@H](OC(=O)Nc1c(-c2ccc(NC(=O)C34CC(C#N)(C3)C4)cn2)nnn1C)c1cccnc1Cl [Compound 64, (R)-1-(2-chloropyridin-3-yl)ethyl (4-(5-(3-cyanobicyclo[1.1.1]pentane-1-carboxamido)pyridin-2-yl)-1-methyl-1H-1,2,3-triazol-5-yl)carbamate]	76.4
C[C@@H](OC(=O)Nc1c(-c2ccc(NC(=O)[C@@H]3CC3(F)F)cn2)nnn1C)c1cccnc1Cl [Compound 65, (R)-1-(2-chloropyridin-3-yl)ethyl (4-(5-((S)-2,2-difluorocyclopropane-1-carboxamido)pyridin-2-yl)-1-methyl-1H-1,2,3-triazol-5-yl)carbamate]	81.9
C[C@@H](OC(=O)Nc1c(-c2ccc(NC(=O)C3(C#N)CCC3)cn2)nnn1C)c1cccnc1Cl [Compound 66, (R)-1-(2-chloropyridin-3-yl)ethyl (4-(5-(1-cyanocyclobutane-1-carboxamido)pyridin-2-yl)-1-methyl-1H-1,2,3-triazol-5-yl)carbamate]	66.6
C[C@@H](OC(=O)Nc1c(-c2ccc(NC(=O)C3(C#N)CC3)cn2)nnn1C)c1cccnc1Cl [Compound 67, (R)-1-(2-chloropyridin-3-yl)ethyl (4-(5-(1-cyanocyclopropane-1-carboxamido)pyridin-2-yl)-1-methyl-1H-1,2,3-triazol-5-yl)carbamate]	30.8
C[C@@H](OC(=O)Nc1c(-c2ccc(NC(=O)C34CC(C3)C4)cn2)nnn1C)c1cccnc1Cl [Compound 68, (R)-1-(2-chloropyridin-3-yl)ethyl (4-(5-(bicyclo[1.1.1]pentane-1-carboxamido)pyridin-2-yl)-1-methyl-1H-1,2,3-triazol-5-yl)carbamate]	40.8
C[C@@H](OC(=O)Nc1c(-c2ccc(NC(=O)[C@@H]3C[C@H]3F)cn2)nnn1C)c1cccnc1Cl [Compound 69, (R)-1-(2-chloropyridin-3-yl)ethyl (4-(5-((1S,2R)-2-fluorocyclopropane-1-carboxamido)pyridin-2-yl)-1-methyl-1H-1,2,3-triazol-5-yl)carbamate]	53
C[C@@H](OC(=O)Nc1c(-c2ccc(NC(=O)C34CC(F)(C3)C4)cn2)nnn1C)c1cccnc1Cl [Compound 70, (R)-1-(2-chloropyridin-3-yl)ethyl (4-(5-(3-fluorobicyclo[1.1.1]pentane-1-carboxamido)pyridin-2-yl)-1-methyl-1H-1,2,3-triazol-5-yl)carbamate]	47.8
C[C@@H](OC(=O)Nc1c(-c2ccc(NC(=O)[C@H]3C[C@@H](F)C3)cn2)nnn1C)c1cccnc1Cl [Compound 71, (R)-1-(2-chloropyridin-3-yl)ethyl (4-(5-((1s,3S)-3-fluorocyclobutane-1-carboxamido)pyridin-2-yl)-1-methyl-1H-1,2,3-triazol-5-yl)carbamate]	89.7
C[C@@H](OC(=O)Nc1c(-c2ccc(NC(=O)C34CC(C(F)(F)F)(C3)C4)cn2)nnn1C)c1cccnc1Cl [Compound 72, (R)-1-(2-chloroypridin-3-yl)ethyl (1-methyl-4-(5-(3-(trifluoromethyl)bicyclo[1.1.1]pentane-1-carboxamido)pyridin-2-yl)-1H-1,2,3-triazol-5-yl)carbamate]	17
C[C@@H](OC(=O)Nc1c(-c2ccc(NC(=O)C3CC4(CCC4)C3)cn2)nnn1C)c1cccnc1Cl [Compound 73, (R)-1-(2-chloropyridin-3-yl)ethyl (1-methyl-4-(5-(spiro[3.3]heptane-2-carboxamido)pyridin-2-yl)-1H-1,2,3-triazol-5-yl)carbamate]	17.3
C[C@@H](OC(=O)Nc1c(-c2ccc(NC(=O)C3(C#N)CC34CCC4)cn2)nnn1C)c1cccnc1Cl (stereo partly drawn) [Compound 74, (R)-1-(2-chloropyridin-3-yl)ethyl (4-(5-(1-cyanospiro[2.3]hexane-1-carboxamido)pyridin-2-yl)-1-methyl-1H-1,2,3-triazol-5-yl)carbamate]	1340
C[C@@H](OC(=O)Nc1c(-c2ccc(NC(=O)C#CC3CC3)cn2)nnn1C)c1cccnc1Cl [Compound 75, (R)-1-(2-chloropyridin-3-yl)ethyl (4-(5-(3-cyclopropylpropiolamido)pyridin-2-yl)-1-methyl-1H-1,2,3-triazol-5-yl)carbamate]	23.4
CC#CC(=O)Nc1ccc(-c2nnn(C)c2NC(=O)O[C@H](C)c2cccnc2Cl)nc1 [Compound 76, (R)-1-(2-chloropyridin-3-yl)ethyl (4 (5-(but-2-ynamido)pyridin-2-yl)-1-methyl-1H-1,2,3-triazol-5-yl)carbamate]	275
C[C@@H](OC(=O)Nc1c(-c2ccc(NC(=O)C3CC4(C3)CC3(CCC3)C4)cn2)nnn1C)c1cccnc1Cl [Compound 77, (R)-1-(2-chloropyridin-3-yl)ethyl (4-(5-(dispiro[3.1.36.14]decane-2-carboxamido)pyridin-2-yl)-1-methyl-1H-1,2,3-triazol-5-yl)carbamate]	25.5
